Assay results taken from patent US4308274A, “N-Alkylsulfonyl-, N-arylsulfonyl-, and N-aminosulfonylaminosulfinylcarbamate esters” (priority 1979, dated 1981).
Read-outs that look alike come from different tables or passages of the source.

Columns and labels:
[1] = mammalian toxicity against Swiss white mice (oral); conditions: mouse, in vivo, corn oil carrier
Description: Mammalian toxicity was determined against Swiss white mice.

[2] = tested on: house flies, Musca domestica; assay: insecticidal activity against house flies (topical, 24 hours mortality); type: in vivo; conditions: read-out: House flies LD50
Description: Representative carbamate esters of the invention were tested for insecticidal activity against house flies, Musca domestica. Stock 1% concentrated solutions for each of the test compounds were made in acetone, and such solutions diluted with acetone to a concentration of 0.001-0.1%. House flies were treated topically on the notum by 1 μl of each of the diluted acetone solutions and percent mortality was counted 24 hours after application. The insects were held at a constant temperature of 60° F. Results are given in μg/g.

[3] = topical on the notum, 1 μl acetone solution, percent mortality 24 hours after application, 60° F

Row | Compound | LD50 [1] [mg/kg] | LD50 ([2]; topical, 24 h) [mg/kg] | LD50 [2, 3] [mg/kg]
1 | CN(C(=O)Oc1cccc2c1OC(C)(C)C2)[S+]([O-])N(C)S(=O)(=O)c1ccccc1 (stereo not drawn) [Example I, 2,3-dihydro-2,2-dimethylbenzofuranyl-7N-(N'-benzenesulfonyl-N'-methylaminosulfinyl)-N-methylcarbamate] | 35 | 9.5 | 
2 | CCCCN(CCCC)S(=O)(=O)N(C)[S+]([O-])N(C)C(=O)Oc1cccc2c1OC(C)(C)C2 (stereo not drawn) [Example IX, 2,3-dihydro-2,2-dimethylbenzofuranyl-7 N-(N'-dibutylaminosulfonyl-N'-methylaminosulfinyl)-N-methylcarbamate] | 25 | 12 | 
3 | CN(C(=O)Oc1cccc2c1OC(C)(C)C2)[S+]([O-])N(C)S(=O)(=O)N1CCOCC1 (stereo not drawn) [Example X, 2,3-Dihydro-2,2-dimethylbenzofuranyl-7N-[N'-(N"-morpholinosulfonyl)-N'-methylaminosulfinyl]N-methylcarbamate] |  | 13 | 
4 | CCN([S+]([O-])N(C)C(=O)Oc1cccc2c1OC(C)(C)C2)S(=O)(=O)N1CCOCC1 (stereo not drawn) [Example XI, 2,3-Dihydro-2,2-dimethylbenzofuranyl-7-N-(N'-morpholinosulfonyl-N'-ethylaminosulfinyl)-N-methylcarbamate] |  | 10 | 
5 | CCCCN(CCCC)S(=O)(=O)N(C)[S+]([O-])N(C)C(=O)ON=C(C)SC (stereo not drawn) [Example XII, S-methyl N-[N'-(N"-dibutylaminosulfonyl-N"-methylaminosulfinyl)-N'-methylcarbamoyloxy]thioacetimidate] | 100 |  | 9
6 | CC(C)Oc1ccccc1OC(=O)N(C)[S+]([O-])N(C)S(=O)(=O)c1ccccc1 (stereo not drawn) [II, 2-isopropoxyphenyl N-(N'-benzenesulfonyl-N'-methylaminosulfinyl)-N-methylcarbamate] | 250 | 55 | 
7 | CC(C)c1cccc(OC(=O)N(C)[S+]([O-])N(C)S(=O)(=O)c2ccccc2)c1 (stereo not drawn) [III, 3-isopropylphenyl N-(N'-benzenesulfonyl-N'-methylaminosulfinyl)-N-methylcarbamate] | 150 | 95 | 
8 | CN(C(=O)Oc1cccc2ccccc12)[S+]([O-])N(C)S(=O)(=O)c1ccccc1 (stereo not drawn) [IV, 1-naphthyl N-(N'-benzenesulfonyl-N'-methylaminosulfinyl)-N-methylcarbamate] | > 500 | 450 | 
9 | CSC(C)=NOC(=O)N(C)[S+]([O-])N(C)S(=O)(=O)c1ccccc1 (stereo not drawn) [V, S-methyl N-[N'-(N"-benzenesulfonyl-N"-methylaminosulfinyl)-N'-methylcarbamoyloxy]thioacetimidate] | 86 |  | 17.5
10 | CCN([S+]([O-])N(C)C(=O)Oc1cccc2c1OC(C)(C)C2)S(C)(=O)=O (stereo not drawn) [VI, 2,3-dihydro-2,2-dimethylbenzofuranyl-7 N-(N'-methanesulfonyl-N'-ethylaminosulfinyl)-N-methylcarbamate] |  | 12.5 | 
11 | CCN([S+]([O-])N(C)C(=O)Oc1cccc(C(C)C)c1)S(C)(=O)=O (stereo not drawn) [VII, 3-isopropylphenyl N-(N'-methanesulfonyl-N'-ethylaminosulfinyl)-N-methylcarbamate] | 200 | 90 | 
12 | CCN([S+]([O-])N(C)C(=O)ON=C(C)SC)S(C)(=O)=O (stereo not drawn) [VIII, S-methyl N-[N'-(N"-methanesulfonyl-N"-ethylaminosulfinyl)-N'-methylcarbamoyloxy]thioacetimidate] | 250 |  | 25
